These results are taken from patent US9523100B2, “Pesticidal compositions and related methods” (DOW AGROSCIENCES LLC, priority 2013, dated 2016).

One may read the mortality as the share of the test organisms that died.

For assay [1], the system named is Green Peach Aphid (GPA) (Myzus persicae) (MYZUPE). Nature of the assay: Bioassay for Green Peach Aphid (GPA), foliar spray on cabbage seedlings. The class given is in vivo. Conditions: 72 h, read-out: GPA 200 ppm, % Control (or Mortality) rating. A digest of the protocol: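 Cabbage seedlings infested with 20-50 GPA (wingless adults and nymphs) one day before spraying to runoff with 200 ppm compound; four pots per treatment. Live aphids counted after three days at ~25° C; percent control by Abbott's correction against solvent-sprayed plants.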

For assay [2], the system named is Sweetpotato Whitefly-Crawler (WF) (Bemisia tabaci) (BEMITA). Nature of the assay: Insecticidal test for Sweetpotato Whitefly-Crawler (WF) in foliar spray assay on cotton plants. The class given is in vivo. To be noted: 216 h, read-out: WF 200 ppm, % Control (or Mortality) rating. A digest of the protocol: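 Cotton plants carrying 200–400 whitefly eggs sprayed to run-off on both leaf surfaces at 200 ppm (acetone/0.025% Tween 20), four plants per treatment. After 9 days at about 25 °C, live 3rd–4th instar nymphs counted; Abbott-corrected percent control versus solvent check.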

Where [3] appears, read: 200 ppm foliar spray on cabbage seedlings, graded after three days, Abbott corrected % control.
The mark [4] stands for this setting: 200 ppm foliar spray on cotton plants, graded after 9 days, Abbott corrected % control.

Where two headings read alike, the source gives them in different places.

On to `CCN1CC(CCCC(=O)N(CC)c2cn(-c3cccnc3)nc2Cl)C1=O` (stereo not drawn) [Compound F81, N-(3-Chloro-1-(pyridin-3-yl)-1H-pyrazol-4-yl)-N-ethyl-4-(1-ethyl-2-oxoazetidin-3-yl)butanamide], for which the mortality at 200 ppm in assay [1] (setting [3]) and in assay [2] (setting [4]) was 80 to 100% each time.

With `O=C(CCC(=O)N(CC1CC1)c1cn(-c2cccnc2)nc1Cl)N1CCCCC1` [Compound F82, N-(3-Chloro-1-(pyridin-3-yl)-1H-pyrazol-4-yl)-N-(cyclopropylmethyl)-4-oxo-4-(piperidin-1-yl)butanamide], the mortality at 200 ppm in assay [1] (setting [3]) lay within 0 to 80%; in assay [2] (setting [4]) it was 80 to 100%.

For the molecule `CCN(C(=O)CN(C)C(=O)c1ccccc1)c1cn(-c2cccnc2)nc1Cl` [Compound F83, N-(2-((3-chloro-1-(pyridin-3-yl)-1H-pyrazol-4-yl)(ethyl)amino)-2-oxoethyl)-N-methylbenzamide], the mortality at 200 ppm is 80 to 100% in assay [1] (setting [3]) and 0 to 80% in assay [2] (setting [4]).

`CCN1CC(CC(=O)N(CC)c2cn(-c3cccnc3)nc2Cl)C1=O` (stereo not drawn) [Compound F84, N-(3-Chloro-1-(pyridin-3-yl)-1H-pyrazol-4-yl)-N-ethyl-2-(1-ethyl-2-oxoazetidin-3-yl)acetamide]: the mortality at 200 ppm in assay [1] (setting [3]) and in assay [2] (setting [4]) was 80 to 100% in each case.

For the molecule `CCN(C(=O)CCC(=O)N(C)CC(F)(F)F)c1cn(-c2cccnc2)nc1Cl` [Compound F85, N1-(3-Chloro-1-(pyridin-3-yl)-1H-pyrazol-4-yl)-N1-ethyl-N4-methyl-N4-(2,2,2-trifluoroethyl) succinamide], the mortality at 200 ppm in assay [1] (setting [3]) and in assay [2] (setting [4]) was 80 to 100% throughout.

For the molecule `CC(=O)N[C@@H]1C=C[C@H](C(=O)N(C)c2cn(-c3cccnc3)nc2Cl)C1` [Compound F86, (1R,4S)-4-acetamido-N-(3-chloro-1-(pyridin-3-yl)-1H-pyrazol-4-yl)-N-methyl-cyclopent-2-enecarboxamide], the mortality at 200 ppm in assay [1] (setting [3]) and in assay [2] (setting [4]) was 80 to 100% in each case.

`CCN(C(=O)CCN1CCSC1=O)c1cn(-c2cccnc2)nc1Cl` [Compound F88, N-(3-Chloro-1-(pyridin-3-yl)-1H-pyrazol-4-yl)-N-ethyl-3-(2-oxothiazolidin-3-yl)propanamide]: the mortality at 200 ppm is 0 to 80% in assay [1] (setting [3]) and 80 to 100% in assay [2] (setting [4]).

Regarding `CCN(C(=O)CCN(CC(F)F)C(=O)CCC(F)(F)F)c1cn(-c2cccnc2)nc1Cl` [Compound F89, N-(3-((3-Chloro-1-(pyridin-3-yl)-1H-pyrazol-4-yl)(ethyl)amino)-3-oxopropyl)-N-(2,2-difluoroethyl)-4,4,4-trifluorobutanamide], the mortality at 200 ppm in assay [1] (setting [3]) and in assay [2] (setting [4]) was 80 to 100% each time.

On to `CN(CC(=O)N(C)c1cn(-c2cccnc2)nc1Cl)C(=O)OC(C)(C)C` [Compound F90, tert-Butyl (2-((3-chloro-1-(pyridin-3-yl)-1H-pyrazol-4-yl)(methyl)amino)-2-oxoethyl)(methyl) carbamate], for which the mortality at 200 ppm in assay [1] (foliar) lay in the range of 0 to 80%; in assay [2] (foliar), 80 to 100%.

As for `CCN(C(=O)CCC1CN(Cc2ccc(C(F)(F)F)nc2)C1=O)c1cn(-c2cccnc2)nc1Cl` (stereo not drawn) [Compound F91, N-(3-Chloro-1-(pyridin-3-yl)-1H-pyrazol-4-yl)-N-ethyl-3-(2-oxo-1-((6-(trifluoromethyl)pyridin-3-yl)methyl)azetidin-3-yl)propanamide], the mortality at 200 ppm in assay [1] (setting [3]) and in assay [2] (setting [4]) was 80 to 100% in each case.

In the case of `CCN(C(=O)C(C)OC(=O)N(C)C)c1cn(-c2cccnc2)nc1Cl` (stereo not drawn) [Compound F93, 1-((3-chloro-1-(pyridin-3-yl)-1H-pyrazol-4-yl)(ethyl)amino)-1-oxopropan-2-yl dimethylcarbamate], the mortality at 200 ppm in assay [1] (foliar) and in assay [2] (foliar) was 80 to 100% in each case.

Consider `CCN(C(=O)CCN(C)C(=O)CCC(F)(F)F)c1cn(-c2cccnc2)nc1Cl` [Compound F94, N-(3-((3-Chloro-1-(pyridin-3-yl)-1H-pyrazol-4-yl)(ethyl)amino)-3-oxopropyl)-4,4,4-trifluoro-N-methylbutanamide], for which the mortality at 200 ppm in assay [1] (setting [3]) and in assay [2] (setting [4]) was 80 to 100% each time.
